Laboratory results taken from article PMC10759558 (European journal of medicinal chemistry, 2023).

Tested on: HIVLAI
Experiment: Antiviral activity in MT-2 human-T-lymphoid cells exposed to HIVLAI
Type: cell-based, HIV-1
Settings: for antiviral activity (in words): MT-2 cells exposed to HIVLAI

| SMILES | fold reduction in antiviral activity over compound 5c (MT-2 cells, HIVLAI, compared with 5c) | antiviral activity (in words) |
| --- | --- | --- |
| Cc1ccc(C(=O)N[C@@H](Cc2cc(F)cc(F)c2)[C@H](O)CN(CC(C)C)S(=O)(=O)c2ccc(N)cc2)cc1Nc1nccc(-c2cccnc2)n1 [5d, N-((2S,3R)-4-((4-amino-N-isobutylphenyl)sulfonamido)-1-(3,5-difluorophenyl)-3-hydroxybutan-2-yl)-4-methyl-3-((4-(pyridin-3-yl)pyrimidin-2-yl)amino)benzamide] | 3 fold |  |
| COc1ccc(S(=O)(=O)N(CC(C)C)C[C@@H](O)[C@H](Cc2ccccc2)NC(=O)c2cccc(Nc3nc(-c4cccnc4)cs3)c2C)cc1 [5f, N-((2S,3R)-3-hydroxy-4-((N-isobutyl-4-methoxyphenyl)sulfonamido)-1-phenylbutan-2-yl)-2-methyl-3-((4-(pyridin-3-yl)thiazol-2-yl)amino)benzamide] |  | did not exhibit any appreciable antiviral activity |
| COc1ccc(S(=O)(=O)N(CC(C)C)C[C@@H](O)[C@H](Cc2ccccc2)NC(=O)c2ccc(C)c(Nc3nc(C)cs3)c2)cc1 [5j, N-((2S,3R)-3-hydroxy-4-((N-isobutyl-4-methoxyphenyl)sulfonamido)-1-phenylbutan-2-yl)-4-methyl-3-((4-methylthiazol-2-yl)amino)benzamide] |  | did not show any appreciable antiviral activity |
